Legend:
Tomato = conditions: TO, 4000 ppm, 2-3 weeks
Protocol: (§2) The compounds were tested for plant growth regulator activity against up to tweleve plant species for various growth effects relevant to plant growth regulation.
(§3) Each chemical was applied at 4000 ppm (4 kg/ha in a 1000 l/ha field volume) using a tracksprayer and a SS8004E (Teejet) nozzle.
(§4) After spray, the plants were grown in a glasshouse with 25° C. day/22° C. night temperatures and supplementary lighting was supplied when necessary (from mercury vapour lamps), to provide a 16 hour photoperiod. The exception to this were the temperate cereals, wheat and barley, which were grown in 16° C. day 13° C. night temperatures
(§5) After 2-3 weeks in the glasshouse, depending on the time of year, the plants were visually assessed for morphological characteristics. Formulations blanks were used as controls to assess the Plants.

Rice = test: Intermediate Retardant Test, rice; format: in vivo, Rice (Ishikari); conditions: Oryza sativa, 672 h, ~28 days, Table VII, read-out: Percentage Reduction in Height of Rice (Compared to formulation blank)
How it was run: (§1)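 Percentage height reduction relative to the formulation blank, assessed about 28 days post-treatment as height to top-most ligule (rice, spring barley) or to apex (apples). Compounds sprayed overall at 1000 and 4000 ppm (1 and 4 kg ha^-1 in 1000 l/ha), covering root and foliar uptake; rice grown immersed in paddy pots.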

Spring Barley = test: Intermediate Retardant Test, spring barley; format: in vivo, Spring Barley (Atem/kym); conditions: Hordeum vulgare, 672 h, ~28 days, Table VIII, read-out: Percentage Reduction in Height of Spring Barley (Compared to formulation blank)
How it was run: as §1

Apples = test: Intermediate Retardant Test, apples; format: in vivo, Apples (Red Delicious); conditions: 672 h, ~28 days, Table IX, read-out: Percentage Reduction in Height of Apples (Compared to formulation blank)
How it was run: as §1

Cynosurus cristatus = conditions: CC, 4000 ppm, 2-3 weeks
Sugar beet = conditions: SB, 4000 ppm, 2-3 weeks
Protocol: as §2, §3, §4, §5

Maize = conditions: MZ, 4000 ppm, 2-3 weeks
Protocol: as §2, §3, §4, §5

Soya = conditions: SY, 4000 ppm, 2-3 weeks
Protocol: as §2, §3, §4, §5

Lettuce = conditions: LT, 4000 ppm, 2-3 weeks
Wheat = conditions: WW, 4000 ppm, 2-3 weeks
Agrostis tenius = conditions: AT, 4000 ppm, 2-3 weeks
Protocol: as §2, §3, §4, §5

Dacrylis glomerata = conditions: DA, 4000 ppm, 2-3 weeks
Protocol: as §2, §3, §4, §5

Barley = conditions: BR, 4000 ppm, 2-3 weeks
Radish = conditions: RA, 4000 ppm, 2-3 weeks
Protocol: as §2, §3, §4, §5

[1] = system: plant species of Whole Plant Screen (1) or (2); test: Across screen comparison: total retardation relative to paclobutrazol (Whole Plant Screens (1) and (2)); format: in vivo; conditions: compounds of Table I, Table X
How it was run: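 Compounds, each tested in Whole Plant Screen (1) or (2), are compared by summing retardation scores over all species tested. Each total is expressed as a percentage of the total retardation from paclobutrazol, the standard run in every test.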

Vines = conditions: VN, 4000 ppm, 2-3 weeks
Protocol: as §2, §3, §4, §5

CCCCC#CC(Cn1cncn1)(OC)C(C)(C)C (stereo not drawn) [Compound 2]
Retardation score (1-3) with greening (G), apical damage (A), tillering/side shooting (T) (Tomato): 1G | Percent reduction in rice plant height vs formulation blank at 1000 ppm (Rice): 17.4% | Percent reduction in rice plant height vs formulation blank at 4000 ppm (Rice): 34.6% | height reduction vs blank at 1000 ppm (Spring Barley): 0.2% | height reduction vs blank at 4000 ppm (Spring Barley): 25.6% | percent reduction in plant height vs formulation blank at 4000 ppm (Apples): 12.3% | Retardation score (1-3) with greening (G), apical damage (A), tillering/side shooting (T) (Cynosurus cristatus): 1G | Retardation score (1-3) with greening (G), apical damage (A), tillering/side shooting (T) (Sugar beet): 1G | Retardation score (1-3) with greening (G), apical damage (A), tillering/side shooting (T) (Maize): 2GA | Retardation score (1-3) with greening (G), apical damage (A), tillering/side shooting (T) (Soya): 3GT | Retardation score (1-3) with greening (G), apical damage (A), tillering/side shooting (T) (Lettuce): 1 (10-30% retardation) | Retardation score (1-3) with greening (G), apical damage (A), tillering/side shooting (T) (Wheat): 2G

CC(C)CCC#CC(O)(Cn1cncn1)C(C)(C)C (stereo not drawn) [Compound 8, 2,2-dimethyl-3-hydroxy-3-(5-methyl-hex-1-yne-1-yl)-4-(1,2,4-triazol-1-yl)-butane]
Retardation score (1-3) with greening (G), apical damage (A), tillering/side shooting (T) (Agrostis tenius): 1G | Retardation score (1-3) with greening (G), apical damage (A), tillering/side shooting (T) (Tomato): 2G | Retardation score (1-3) with greening (G), apical damage (A), tillering/side shooting (T) (Dacrylis glomerata): 1G | Percent reduction in rice plant height vs formulation blank at 1000 ppm (Rice): 26.6% | Percent reduction in rice plant height vs formulation blank at 4000 ppm (Rice): 47.7% | height reduction vs blank at 1000 ppm (Spring Barley): 39.6% | height reduction vs blank at 4000 ppm (Spring Barley): 65.8% | percent reduction in plant height vs formulation blank at 1000 ppm (Apples): 7.5% | percent reduction in plant height vs formulation blank at 4000 ppm (Apples): 26% | Retardation score (1-3) with greening (G), apical damage (A), tillering/side shooting (T) (Cynosurus cristatus): 2G | Retardation score (1-3) with greening (G), apical damage (A), tillering/side shooting (T) (Barley): 1T | Retardation score (1-3) with greening (G), apical damage (A), tillering/side shooting (T) (Maize): 1G | Retardation score (1-3) with greening (G), apical damage (A), tillering/side shooting (T) (Radish): 3G | Retardation score (1-3) with greening (G), apical damage (A), tillering/side shooting (T) (Soya): 3G | Retardation score (1-3) with greening (G), apical damage (A), tillering/side shooting (T) (Lettuce): 1G | Total Retardation expressed as a percentage of the total retardation caused by paclobutrazol [1]: 60.0 % of paclobutrazol | Retardation score (1-3) with greening (G), apical damage (A), tillering/side shooting (T) (Vines): 1 (10-30% retardation) | Retardation score (1-3) with greening (G), apical damage (A), tillering/side shooting (T) (Wheat): 3GT

CCCCCC#CC(O)(Cn1cncn1)C(C)(C)C (stereo not drawn) [Compound 3, 2,2-dimethyl-3-hydroxy-3-(hept-1-yne-1-yl)-4-(1,2,4-triazol-1-yl)-butane]
Retardation score (1-3) with greening (G), apical damage (A), tillering/side shooting (T) (Agrostis tenius): 2G | Retardation score (1-3) with greening (G), apical damage (A), tillering/side shooting (T) (Tomato): 2G | Retardation score (1-3) with greening (G), apical damage (A), tillering/side shooting (T) (Dacrylis glomerata): 2G | Percent reduction in rice plant height vs formulation blank at 1000 ppm (Rice): 21.2% | Percent reduction in rice plant height vs formulation blank at 4000 ppm (Rice): 40.8% | height reduction vs blank at 1000 ppm (Spring Barley): 18.5% | height reduction vs blank at 4000 ppm (Spring Barley): 34.7% | percent reduction in plant height vs formulation blank at 1000 ppm (Apples): 9.5% | percent reduction in plant height vs formulation blank at 4000 ppm (Apples): 25.9% | Retardation score (1-3) with greening (G), apical damage (A), tillering/side shooting (T) (Cynosurus cristatus): 2G | Retardation score (1-3) with greening (G), apical damage (A), tillering/side shooting (T) (Barley): 1T | Retardation score (1-3) with greening (G), apical damage (A), tillering/side shooting (T) (Sugar beet): 1G | Retardation score (1-3) with greening (G), apical damage (A), tillering/side shooting (T) (Maize): 1G | Retardation score (1-3) with greening (G), apical damage (A), tillering/side shooting (T) (Radish): 3 (61-100% retardation) | Retardation score (1-3) with greening (G), apical damage (A), tillering/side shooting (T) (Soya): 3GA | Total Retardation expressed as a percentage of the total retardation caused by paclobutrazol [1]: 65.6 % of paclobutrazol | Retardation score (1-3) with greening (G), apical damage (A), tillering/side shooting (T) (Vines): 2GAT | Retardation score (1-3) with greening (G), apical damage (A), tillering/side shooting (T) (Wheat): 2GT
